Experiments:
[1] = biological target: T1, RORγ-LBD (Homo sapiens, UniProt P51449); assay: RORγ-Ligand Binding Domain TR-FRET Assay; type: biochemical; details: benzoxazines, Table 9
T1 construct: HIS-tagged RORγ-LBD was recombinantly expressed in SF9 cells; made in house; host or cells: SF9 cells (baculovirus); unpurified lysate
T1 sequence (P51449 269-508 limits assumed): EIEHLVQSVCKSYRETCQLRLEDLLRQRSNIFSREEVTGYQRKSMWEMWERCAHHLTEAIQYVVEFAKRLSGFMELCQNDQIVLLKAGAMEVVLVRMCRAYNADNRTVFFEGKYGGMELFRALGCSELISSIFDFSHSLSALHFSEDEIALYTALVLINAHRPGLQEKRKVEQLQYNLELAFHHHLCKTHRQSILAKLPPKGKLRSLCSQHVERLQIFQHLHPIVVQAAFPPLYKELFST
Summary of the method: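 IC50 derived from the 665 nm/615 nm emission ratio after 4 h to overnight incubation. Mixture: Sf9 lysate with His-tagged LBD (~10 nM final, not purified), SRC1-2 LXXLL biotin peptide at 450 nM, 2 nM europium anti-His antibody, 60 nM APC-streptavidin; buffer 25 mM HEPES pH 7.0, 100 mM NaCl, 0.01% Tween, 0.1% BSA.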

[2] = biological target: T2, RORγt (Homo sapiens, UniProt P51449); assay: RORγ Reporter Assay (GAL4-UAS luciferase reporter in HEK293 cells); type: cell-based; details: benzoxazines, Table 9; HEK cells
T2 construct: The resulting GAL4-RORγt-LBD fusion construct was placed under the control of a constitutive cytomegalovirus (CMV) promoter; expressed in transfected cells; host or cells: HEK293
T2 sequence (P51449 269-508 limits assumed): T1 sequence (P51449 269-508 limits assumed)

SMILES	IC50 [1] [µM]	IC50 [2] [µM]
CCOCC1CN(S(=O)(=O)c2ccc(F)c(F)c2)c2cc(NC(=O)c3c(F)cccc3F)ccc2O1 (centres unmarked) [VI-99]	< 15	< 15
O=C(Nc1ccc2c(c1)N(S(=O)(=O)c1ccc(Cl)cc1)C[C@H](CO)O2)c1c(F)cccc1C(F)(F)F [VI-67]	< 15	< 15
COCC1CN(S(=O)(=O)c2ccc(Cl)cc2)c2cc(NC(=O)c3c(F)cccc3F)ccc2O1 (centres unmarked) [VI-97]	< 15	< 15
O=C(Nc1ccc2c(c1)N(S(=O)(=O)c1ccccc1)C[C@H](CO)O2)c1c(F)cccc1Cl [VI-24]	< 15	< 15
CC1(C)CN(S(=O)(=O)c2ccc(F)cc2)c2cc(NC(=O)c3c(Cl)cccc3Cl)ccc2O1 [VI-125]	< 15	< 15
O=C(Nc1ccc2c(c1)N(S(=O)(=O)c1ccc(F)cc1)C[C@@H](CO)O2)c1c(Cl)cccc1C(F)(F)F [VI-122]	< 15	< 15
N#Cc1cccc(S(=O)(=O)N2C[C@H](CO)Oc3ccc(NC(=O)c4c(F)cccc4C(F)(F)F)cc32)c1 [VI-62]	< 15	< 15
O=C(Nc1ccc2c(c1)N(S(=O)(=O)c1ccc(F)cc1)C[C@@H](CO)O2)c1c(Cl)cccc1Cl [VI-106]	< 15	< 15
Cc1cccc(C)c1C(=O)Nc1ccc2c(c1)N(S(=O)(=O)c1ccc(F)cc1)C[C@H](CO)O2 [VI-49]	< 15	< 15
O=C(Nc1ccc2c(c1)N(S(=O)(=O)c1ccc(F)c(F)c1)C[C@H](CO)O2)c1c(F)cccc1Cl [VI-42]	< 15	< 15
O=C(Nc1ccc2c(c1)N(S(=O)(=O)c1ccc(F)c(F)c1)C[C@@H](CO)O2)c1c(F)cccc1F [VI-76]	< 15	< 15
CCOCC1CN(S(=O)(=O)c2cccc(C#N)c2)c2cc(NC(=O)c3c(F)cccc3F)ccc2O1 (centres unmarked) [VI-102]	< 15	< 15
COc1ccc(S(=O)(=O)N2C[C@H](CO)Oc3ccc(NC(=O)c4c(F)cccc4C(F)(F)F)cc32)cn1 [VI-25]	< 15	< 15
O=C(Nc1ccc2c(c1)N(S(=O)(=O)c1ccc(F)cc1)CC(CN(CC1CC1)CC1CC1)O2)c1c(F)cccc1Cl (centres unmarked) [VI-37]	< 15	< 15
O=C(Nc1ccc2c(c1)N(S(=O)(=O)c1ccc(Cl)cc1)C[C@@H](CO)O2)c1c(Cl)cccc1Cl [VI-52]	< 15	< 15
CC(=O)NCC1CN(S(=O)(=O)c2ccc(F)cc2)c2cc(NC(=O)c3c(F)cccc3Cl)ccc2O1 (centres unmarked) [VI-39]	< 15	< 15
COc1ccc(S(=O)(=O)N2C[C@H](CO)Oc3cc(F)c(NC(=O)c4c(F)cccc4Cl)cc32)cn1 [VI-46]	< 15	< 15
O=C(Nc1cc2c(cc1F)O[C@@H](CO)CN2S(=O)(=O)c1ccc(F)cc1)c1c(Cl)cccc1C(F)(F)F [VI-41]	< 15	< 15
O=C(Nc1ccc2c(c1)N(S(=O)(=O)c1ccc(F)cc1)C[C@H](CO)O2)c1c(F)cccc1C(F)(F)F [VI-82]	< 15	< 15

From patent US9512111B2, “N-sulfonylated tetrahydroquinolines and related bicyclic compounds for inhibition of RORγ activity and the treatment of disease” (Lycera Corporation, priority 2010, dated 2016)
